{"source": "ChEMBL document CHEMBL1201862", "about": "“PubChem BioAssay data set” (2004)", "key": {"[1]": {"target": "T1, Type-1 angiotensin II receptor (Homo sapiens, UniProt P30556)", "T1 sequence (P30556 whole entry)": "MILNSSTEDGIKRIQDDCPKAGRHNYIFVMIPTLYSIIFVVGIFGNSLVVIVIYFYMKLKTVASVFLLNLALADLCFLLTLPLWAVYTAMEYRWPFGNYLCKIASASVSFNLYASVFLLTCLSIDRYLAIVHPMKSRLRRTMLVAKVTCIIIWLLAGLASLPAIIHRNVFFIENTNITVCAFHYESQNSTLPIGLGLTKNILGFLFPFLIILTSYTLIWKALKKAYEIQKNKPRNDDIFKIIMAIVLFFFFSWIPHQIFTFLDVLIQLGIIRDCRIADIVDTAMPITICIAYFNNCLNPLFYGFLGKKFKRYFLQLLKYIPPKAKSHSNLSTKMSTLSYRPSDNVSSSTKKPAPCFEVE", "assay": "AT1 receptor antagonists, dose response, selectivity assay for APJ receptor antagonist project, cell-based, uHTS hits (AID 463214);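 further: antagonist potency against angiotensin II stimulated AT1 response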", "format": "functional"}, "[2]": {"target": "T2, Beta-galactosidase (Escherichia coli, UniProt Q8VNN2)", "T2 sequence (Q8VNN2 whole entry)": "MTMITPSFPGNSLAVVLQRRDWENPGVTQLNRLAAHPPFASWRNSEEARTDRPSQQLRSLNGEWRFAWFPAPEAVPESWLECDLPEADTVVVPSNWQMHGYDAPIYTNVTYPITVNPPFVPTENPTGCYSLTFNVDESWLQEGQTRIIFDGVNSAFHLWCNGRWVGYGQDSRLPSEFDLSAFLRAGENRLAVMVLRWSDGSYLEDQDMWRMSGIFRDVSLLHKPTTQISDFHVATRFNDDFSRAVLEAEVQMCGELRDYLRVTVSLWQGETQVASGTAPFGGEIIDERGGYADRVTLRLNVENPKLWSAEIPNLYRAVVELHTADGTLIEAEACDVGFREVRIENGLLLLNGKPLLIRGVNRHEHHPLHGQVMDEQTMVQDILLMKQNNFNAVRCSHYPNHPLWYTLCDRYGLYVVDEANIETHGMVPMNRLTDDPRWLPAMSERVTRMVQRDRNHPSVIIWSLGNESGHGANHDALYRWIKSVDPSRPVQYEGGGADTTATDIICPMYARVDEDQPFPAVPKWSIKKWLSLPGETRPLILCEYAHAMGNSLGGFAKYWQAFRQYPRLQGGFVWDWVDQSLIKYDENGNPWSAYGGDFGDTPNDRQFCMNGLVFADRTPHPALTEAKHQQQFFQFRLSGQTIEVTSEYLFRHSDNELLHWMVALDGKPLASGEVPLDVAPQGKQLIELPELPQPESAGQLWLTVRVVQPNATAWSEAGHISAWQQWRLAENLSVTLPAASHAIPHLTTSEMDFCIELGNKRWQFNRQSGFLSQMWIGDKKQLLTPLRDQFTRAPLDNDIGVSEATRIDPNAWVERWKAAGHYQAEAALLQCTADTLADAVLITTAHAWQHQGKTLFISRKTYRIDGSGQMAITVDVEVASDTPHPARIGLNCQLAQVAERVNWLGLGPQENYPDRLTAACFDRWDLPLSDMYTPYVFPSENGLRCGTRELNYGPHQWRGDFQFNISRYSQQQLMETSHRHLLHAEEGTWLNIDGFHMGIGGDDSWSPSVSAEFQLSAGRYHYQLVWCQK", "assay": "PubChem AID 485352", "format": "functional"}, "[3]": {"target": "T2, Beta-galactosidase", "assay": "beta-galactosidase enzyme inhibitors and activators, dose response, artefact control for CCR6 antagonist project, biochemical, E. coli enzyme, set 3 (AID 504712)", "format": "functional"}, "[4]": {"target": "T3, Bcl-2-like protein 10 (Homo sapiens, UniProt Q9HD36)", "T3 sequence (Q9HD36 whole entry)": "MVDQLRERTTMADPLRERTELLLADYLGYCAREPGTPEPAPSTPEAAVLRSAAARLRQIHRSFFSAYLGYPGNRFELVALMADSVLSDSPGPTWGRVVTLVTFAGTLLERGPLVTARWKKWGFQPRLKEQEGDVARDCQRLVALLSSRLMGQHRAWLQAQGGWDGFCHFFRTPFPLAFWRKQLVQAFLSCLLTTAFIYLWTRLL", "assay": "displacers of TR3 peptide from Bcl-B, primary screen, selectivity assay for Bfl-1 inhibitor project, biochemical, fluorescence polarization, FITC-TR3 peptide (AID 748);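 further: fluorescence polarization from a fluorescein-labelled TR3 peptide binding purified Bcl-B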"}, "[5]": {"target": "T4, Rac GTPase-activating protein 1 (Homo sapiens, UniProt Q9H0H5)", "T4 sequence (Q9H0H5 whole entry)": "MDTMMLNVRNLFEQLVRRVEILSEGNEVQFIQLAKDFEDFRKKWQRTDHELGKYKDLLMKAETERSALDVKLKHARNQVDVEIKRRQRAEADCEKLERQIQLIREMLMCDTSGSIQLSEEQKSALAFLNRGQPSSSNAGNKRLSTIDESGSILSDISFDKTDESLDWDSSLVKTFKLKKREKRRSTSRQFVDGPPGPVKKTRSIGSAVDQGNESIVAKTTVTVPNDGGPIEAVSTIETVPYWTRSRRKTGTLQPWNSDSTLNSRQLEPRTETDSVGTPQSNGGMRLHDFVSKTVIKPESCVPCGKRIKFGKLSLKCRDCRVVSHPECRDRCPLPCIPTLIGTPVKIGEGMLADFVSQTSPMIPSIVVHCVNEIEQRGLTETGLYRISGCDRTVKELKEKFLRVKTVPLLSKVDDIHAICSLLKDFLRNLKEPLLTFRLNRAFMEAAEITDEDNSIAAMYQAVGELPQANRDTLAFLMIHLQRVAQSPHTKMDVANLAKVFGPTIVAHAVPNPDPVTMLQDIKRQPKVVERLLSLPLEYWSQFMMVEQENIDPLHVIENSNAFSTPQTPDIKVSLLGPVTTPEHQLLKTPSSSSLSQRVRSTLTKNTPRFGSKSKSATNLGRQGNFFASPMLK", "assay": "MgcRacGAP GTPase-activating activity inhibitors, confirmation, biochemical, ADP Hunter fluorescence, primary and confirmatory (AID 624330)", "format": "functional"}, "[6]": {"target": "T5, Protein skinhead-1 (Caenorhabditis elegans, UniProt P34707)", "T5 sequence (P34707 whole entry)": "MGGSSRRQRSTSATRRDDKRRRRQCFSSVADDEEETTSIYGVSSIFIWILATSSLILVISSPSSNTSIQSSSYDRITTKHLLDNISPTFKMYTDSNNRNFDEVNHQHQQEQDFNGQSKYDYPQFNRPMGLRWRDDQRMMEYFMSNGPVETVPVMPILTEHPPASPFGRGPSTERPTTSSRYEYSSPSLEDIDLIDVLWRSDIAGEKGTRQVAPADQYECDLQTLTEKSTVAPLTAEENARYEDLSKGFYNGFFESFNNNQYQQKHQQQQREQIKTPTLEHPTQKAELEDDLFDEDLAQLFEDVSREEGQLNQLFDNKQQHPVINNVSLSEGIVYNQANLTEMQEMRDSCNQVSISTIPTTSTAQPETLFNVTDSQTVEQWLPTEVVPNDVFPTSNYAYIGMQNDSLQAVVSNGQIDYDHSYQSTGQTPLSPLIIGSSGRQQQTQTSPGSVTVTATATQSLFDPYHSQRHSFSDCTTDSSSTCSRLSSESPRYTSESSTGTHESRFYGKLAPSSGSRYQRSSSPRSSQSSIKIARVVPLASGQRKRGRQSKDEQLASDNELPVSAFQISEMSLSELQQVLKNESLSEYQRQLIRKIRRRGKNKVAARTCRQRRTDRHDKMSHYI", "format": "functional"}, "[7]": {"target": "DNA dC->dU-editing enzyme APOBEC-3A (Homo sapiens, UniProt P31941)", "sequence (P31941 whole entry)": "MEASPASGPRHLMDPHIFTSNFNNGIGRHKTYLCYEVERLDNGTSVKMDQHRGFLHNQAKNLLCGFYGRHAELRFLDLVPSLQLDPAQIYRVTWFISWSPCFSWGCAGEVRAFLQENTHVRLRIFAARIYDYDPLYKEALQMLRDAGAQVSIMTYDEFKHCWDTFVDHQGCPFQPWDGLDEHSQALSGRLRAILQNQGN", "assay": "Dose Response confirmation of small molecule APOBEC3A DNA Deaminase Inhibitors via a fluorescence-based single-stranded DNA deaminase assay. [Related pubchem assays (depositor defined):AID493011, AID493024]", "format": "functional"}, "[8]": {"target": "DNA dC->dU-editing enzyme APOBEC-3G (Homo sapiens, UniProt Q9HC16)", "sequence (Q9HC16 whole entry)": "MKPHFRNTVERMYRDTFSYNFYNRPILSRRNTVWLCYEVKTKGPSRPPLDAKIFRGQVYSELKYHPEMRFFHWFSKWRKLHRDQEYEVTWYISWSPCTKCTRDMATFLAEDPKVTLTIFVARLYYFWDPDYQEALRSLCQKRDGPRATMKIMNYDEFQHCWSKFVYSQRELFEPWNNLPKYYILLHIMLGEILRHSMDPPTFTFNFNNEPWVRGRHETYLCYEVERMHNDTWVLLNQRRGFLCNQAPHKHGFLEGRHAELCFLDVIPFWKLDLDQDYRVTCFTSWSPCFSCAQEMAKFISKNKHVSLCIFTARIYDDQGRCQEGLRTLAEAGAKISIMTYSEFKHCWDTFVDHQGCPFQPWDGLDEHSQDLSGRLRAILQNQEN", "format": "functional"}, "[9]": {"tested_on": "HEK293", "assay": "cells", "settings": "Homo sapiens"}, "[10]": {"tested_on": "HEK293", "assay": "cells", "settings": "Homo sapiens", "remark": "listed apart in the source"}, "[11]": {"target": "Troponin, cardiac muscle (Homo sapiens, UniProt P19429+P45379+P63316)", "assay": "Fluorescence-based biochemical high throughput dose response assay for activators of the calcium sensitivity of cardiac Regulated Thin Filaments (RTF). [Related pubchem assays (depositor defined):AID493008, AID493018, AID504382, AID504383]", "format": "protein-complex assay"}, "[12]": {"target": "T6, Tyrosine-protein phosphatase non-receptor type 7 (Homo sapiens, UniProt P35236)", "T6 sequence (P35236 whole entry)": "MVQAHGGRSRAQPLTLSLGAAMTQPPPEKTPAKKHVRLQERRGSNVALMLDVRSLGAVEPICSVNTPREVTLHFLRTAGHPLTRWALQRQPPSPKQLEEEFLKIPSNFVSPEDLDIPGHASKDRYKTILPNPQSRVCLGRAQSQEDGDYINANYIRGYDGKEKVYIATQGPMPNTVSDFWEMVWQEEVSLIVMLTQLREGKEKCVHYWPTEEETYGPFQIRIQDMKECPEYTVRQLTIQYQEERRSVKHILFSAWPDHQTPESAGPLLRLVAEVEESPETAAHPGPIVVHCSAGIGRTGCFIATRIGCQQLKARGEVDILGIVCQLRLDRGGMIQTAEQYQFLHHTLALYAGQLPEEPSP", "assay": "redox-dependent HePTP inhibition, mechanism study, biochemical, fluorescence (AID 2068)", "format": "functional"}, "[13]": {"assay": "inhibitors of intracellular T. cruzi replication, confirmation, NIH3T3 host cells, beta-gal luminescence (AID 2044);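 further: luminescent beta-galactosidase reporter signal from transgenic T. cruzi replicating inside host cells; inhibitors lower the luminescence signal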", "format": "functional, cell-based"}, "[14]": {"assay": "cytotoxicity toward NIH3T3 fibroblasts, dose response, counter-screen, cell-based, ATP luminescence, mouse fibroblasts (AID 2010);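 further: cells exposed to compound for about 90 hours before reading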", "format": "functional"}, "[15]": {"target": "Glucose-6-phosphate 1-dehydrogenase (Homo sapiens, UniProt P11413)", "sequence (P11413 whole entry)": "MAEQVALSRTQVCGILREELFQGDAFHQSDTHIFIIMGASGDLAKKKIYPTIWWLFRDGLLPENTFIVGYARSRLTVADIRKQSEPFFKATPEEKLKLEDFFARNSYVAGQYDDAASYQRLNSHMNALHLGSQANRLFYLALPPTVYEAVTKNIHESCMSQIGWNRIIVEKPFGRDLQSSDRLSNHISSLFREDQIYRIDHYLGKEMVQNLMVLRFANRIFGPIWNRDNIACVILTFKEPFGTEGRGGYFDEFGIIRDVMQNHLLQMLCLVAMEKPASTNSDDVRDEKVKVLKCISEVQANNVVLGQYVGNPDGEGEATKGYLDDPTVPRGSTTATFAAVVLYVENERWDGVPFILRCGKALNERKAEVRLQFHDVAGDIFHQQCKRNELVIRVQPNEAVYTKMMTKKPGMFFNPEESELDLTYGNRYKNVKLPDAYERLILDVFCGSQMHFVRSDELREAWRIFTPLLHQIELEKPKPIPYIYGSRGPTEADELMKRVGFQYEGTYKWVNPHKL", "assay": "human G6PD enzyme inhibitors, dose response, selectivity assay for P. falciparum G6PD inhibitor project, biochemical, fluorescence (AID 504792)", "format": "functional"}, "[16]": {"target": "T7, Aminopeptidase N (Plasmodium falciparum FcB1/Columbia, UniProt O96935)", "T7 sequence (O96935 whole entry)": "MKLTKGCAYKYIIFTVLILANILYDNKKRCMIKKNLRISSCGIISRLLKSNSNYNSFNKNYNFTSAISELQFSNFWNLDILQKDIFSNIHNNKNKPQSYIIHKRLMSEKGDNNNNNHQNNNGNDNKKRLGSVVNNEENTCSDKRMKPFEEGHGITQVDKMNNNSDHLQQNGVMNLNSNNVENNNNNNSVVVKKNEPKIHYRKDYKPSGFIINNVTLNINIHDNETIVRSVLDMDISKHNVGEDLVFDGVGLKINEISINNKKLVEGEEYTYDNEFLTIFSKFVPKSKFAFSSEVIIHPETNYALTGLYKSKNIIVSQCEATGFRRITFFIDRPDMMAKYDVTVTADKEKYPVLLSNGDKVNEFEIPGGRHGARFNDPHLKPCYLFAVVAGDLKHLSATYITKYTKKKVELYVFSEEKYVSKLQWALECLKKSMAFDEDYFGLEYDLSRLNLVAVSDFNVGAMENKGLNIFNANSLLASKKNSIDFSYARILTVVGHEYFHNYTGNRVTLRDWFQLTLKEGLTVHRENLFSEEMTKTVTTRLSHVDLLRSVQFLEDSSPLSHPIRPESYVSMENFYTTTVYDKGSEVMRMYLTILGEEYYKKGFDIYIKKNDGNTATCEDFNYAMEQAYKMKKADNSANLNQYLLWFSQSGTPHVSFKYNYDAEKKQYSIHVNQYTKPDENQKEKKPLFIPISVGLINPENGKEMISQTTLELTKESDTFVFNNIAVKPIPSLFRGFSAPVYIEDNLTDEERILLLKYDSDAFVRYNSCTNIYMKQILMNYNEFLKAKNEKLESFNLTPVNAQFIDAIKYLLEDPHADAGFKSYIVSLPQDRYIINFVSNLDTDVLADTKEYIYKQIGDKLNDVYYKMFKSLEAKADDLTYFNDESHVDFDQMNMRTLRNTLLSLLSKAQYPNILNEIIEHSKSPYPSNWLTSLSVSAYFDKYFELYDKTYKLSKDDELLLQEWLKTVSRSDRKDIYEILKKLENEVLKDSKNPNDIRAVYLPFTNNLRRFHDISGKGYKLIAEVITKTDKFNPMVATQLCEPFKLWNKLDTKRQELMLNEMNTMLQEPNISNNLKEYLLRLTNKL", "assay": "P. falciparum M1AAP inhibitors, biochemical, fluorogenic H-Leu-NHMec substrate, 1536-well (AID 1445)", "set-up": "species or system Plasmodium falciparum 3D7, 3D7"}}, "note": "Activity calls are given as the source filed them.", "data": [{"compound": "CCN(CC)c1nc(C)c(C(S)=Nc2cc([N+](=O)[O-])ccc2Cl)s1", "values": [{"measurement": "IC50", "setting": "[1]", "result": "> 40 µM (not active)"}, {"measurement": "EC50", "setting": "[2]", "result": "24.8 µM (active)"}]}, {"compound": "O=C1CC(Sc2nnnn2C2CCCCC2)C(=O)N1c1ccccc1", "note": "(centres undefined)", "values": [{"measurement": "IC50", "setting": "[3]", "result": "> 66.6 µM (inactive)"}]}, {"compound": "Nc1ccc(N2CCN(C(=O)c3cccs3)CC2)cc1", "values": [{"measurement": "IC50", "setting": "[4]", "result": "> 100 µM (inactive)"}, {"measurement": "IC50", "setting": "[5]", "result": "19 µM (active)"}, {"measurement": "IC50", "setting": "[6]", "result": "> 100 µM (inactive)"}]}, {"compound": "CC1(C#CC[N+]2(C)CCCCC2)CCC2C(O1)c1ccccc1OC2(C)C", "note": "(centres undefined)", "values": [{"measurement": "IC50", "setting": "[7]", "result": "3.03 µM (active)"}, {"measurement": "IC50", "setting": "[8]", "result": "5.07 µM (active)"}]}, {"compound": "COc1cc2c(cc1OC)-c1nnc(-c3cccs3)n1C(C)(C)C2", "values": [{"measurement": "EC50", "setting": "[9]", "result": "> 59.6 µM (inactive)"}, {"measurement": "EC50", "setting": "[10]", "result": "> 59.6 µM (inactive)"}]}, {"compound": "CCCCNC(=O)CSc1nc2ccc(NC(=O)CSc3nnc(N)s3)cc2s1", "values": [{"measurement": "IC50", "setting": "[7]", "result": "3.61 µM (active)"}, {"measurement": "IC50", "setting": "[8]", "result": "6.28 µM (active)"}]}, {"compound": "COc1ccccc1NS(=O)(=O)c1cc(NC(=O)c2cc3ccccc3oc2=O)ccc1C", "values": [{"measurement": "EC50", "setting": "[11]", "result": "> 71.5 µM (inactive)"}]}, {"compound": "O=C(C1=C(O)C(=O)N(CCN2CCOCC2)C1c1ccc([N+](=O)[O-])cc1)c1cccs1", "note": "(centres undefined)", "values": [{"measurement": "EC50", "setting": "[11]", "result": "> 71.4 µM (inactive)"}]}, {"compound": "COc1cccc(NC(=O)Nc2ccc3nc(-c4ccco4)c(-c4ccco4)nc3c2)c1", "values": [{"measurement": "IC50", "setting": "[12]", "result": "1.09 µM (active)"}]}, {"compound": "Cc1nn(-c2ccccc2)c(Cl)c1/C=N/Nc1nc2ccccc2n1C", "values": [{"measurement": "EC50", "setting": "[13]", "result": "1.94 µM (active)"}, {"measurement": "EC50", "setting": "[14]", "result": "> 60 µM (not active)"}, {"measurement": "IC50", "setting": "[15]", "result": "> 80 µM (inactive)"}]}, {"compound": "COc1ccc(Br)cc1/C=N/NC(=O)CNC(=O)c1cccnc1", "values": [{"measurement": "IC50", "setting": "[16]", "result": "27.2 µM (active)"}]}]}
